Experimental data as given in patent publication US20030108622A1, “Cancer treatment composition and method using signal transduction modulators and natural plant essential oils as synergists for conventional treatments” (EcoSMART Technologies, Inc., priority 1998, published 2003).

Key:
Type in all cases: cell-based, human
MCF-7 cells [1] = assay: Dose-response of signal transduction modulators on E2-induced cell proliferation, 3H-thymidine incorporation (Example 2)
Description: Dose-response of Signal Transduction Modulators on E2-Induced Cell Proliferation To determine the impact of two key signaling proteins, cAMP/PKA system and tyrosine kinase family member, c-Src kinase (p^src60) on estrogen-induced cell proliferation in human epithelial breast cancer cells, MCF-7 cells were cultured in growth DMEM medium supplemented with 10% fetal bovine serum (FBS). At 85% confluence, cells were sub-cultured in 5% FBS serum stripped medium, phenol red free for 24 hours prior to the treatment of the test chemical. […] Tamoxifen (TX) was used in parallel as positive control. Cell proliferation was measured using ^3H-thymidine incorporation. The study was done in triplicate and a control was used with solvent only. Control received solvent only at <0.1% ethanol.

MCF-7 cells [2] = assay: Effect of FK or GM on TX efficacy against E2-induced cell proliferation, 3H-thymidine incorporation (Example 3)
Description: In another experiment cells were treated with 10 nM E2 (=2.7 ng E2/ml) with three concentraion of GM (1, 5 and 10 ng/ml) 24 hours prior to cell proliferation assessment. Tamoxifen (TX) was used in parallel as positive control. Cell proliferation was measured using ^3H-thymidine incorporation. The study was done in triplicate and a control was used with solvent only. Control received solvent only at <0.1% ethanol.

MCF-7 cells [3] = assay: Cell growth without E2, 5 days, cell count using trypan blue exclusion (Examples 5-7); conditions: mixtures with TX; conclusion from the Examples, FIGS. 6-9
Description: MCF-7 cells were cultured in growth DMEM medium supplemented with 10% fetal bovine serum (FBS). At 85% confluence, cells were sub-cultured in 5% FBS serum stripped medium, phenol red free for 24 hours prior to the treatment of the test chemical. Cells were treated with and without a mixture of either 5 μM FK […] and 1 μM TX (=0.56 ug TX/ml) or a mixture of 1 μM TX (=0.56 ug TX/ml) and 1 μM FK. Cell growth was measured 5 days following treatment. Cell growth was determined by cell count using trypan blue exclusion. The study was done in duplicate and a control was used with solvent only. Control received solvent only at <0.1% ethanol.
MCF-7 cells were cultured in growth DMEM medium supplemented with 10% fetal bovine serum (FBS). At 85% confluence, cells were sub-cultured in 5% FBS serum stripped medium, phenol red free for 24 hours prior to the treatment of the test chemical. Cells were treated with and without a mixture of either 5 ng GM/ml and 5 μM TX (=2.8 ug TX/ml) or a mixture of 10 ng GM/ml and 5 μM TX (=2.8 ug TX/ml). Cell growth was measured 5 days following treatment. Cell growth was determined by cell count using trypan blue exclusion. […]
MCF-7 cells were cultured in growth DMEM medium supplemented with 10% fetal bovine serum (FBS). […] Cell growth was measured 5 days following treatment. Cell growth was determined by cell count using trypan blue exclusion. […]

MCF-7 cells [4] = assay: Dose-response of tamoxifen on E2-induced cell proliferation, 3H-thymidine incorporation (Example 1)
Description: Dose-Response of Tamoxifen on Estrogen (E2)-Induced Cell Proliferation MCF-7 cells were cultured in growth DMEM medium supplemented with 10% fetal bovine serum (FBS). […] […] Cell proliferation was measured using ^3H-thymidine incorporation. The study was done in triplicate and a control was used with solvent only. Control received solvent only at <0.1% ethanol.
In Table 1, percentage of control is calculated either based on the control (solvent only, ethanol 0.1%) or based on the E2 values which is between parenthesis.

MCF-7 cells [5] = assay: Time-course of E2-induced cell growth, cell count using trypan blue exclusion (Example 4); conditions: TX 1 μM alone + E2 10 nM; calculated on control value, FIG. 4
Description: Effect of cAMP Inducer on Efficacy and Stability of Tamoxifen MCF-7 cells were cultured in growth DMEM medium supplemented with 10% fetal bovine serum (FBS). At 85% confluence, cells were sub-cultured in 5% FBS serum stripped medium, phenol red free for 24 hours prior to the treatment of the test chemical. Cells were treated with 10 nM E2 (=2.7 ng E2/ml) with and without a mixture of 1 μM FK and 1 μM TX. Cell growth was measured 1, 2 and 5 days following treatment. Cell growth was determined by cell count using trypan blue exclusion. The study was done in duplicate and a control was used with solvent only. Control received solvent only at <. 1% ethanol.

[6] = TX 5 μM + E2 10 nM, based on solvent control
[7] = TX 5 μM + E2 10 nM, value in parenthesis, based on E2 value
[8] = TX 10 μM + E2 10 nM, based on solvent control

C=C[C@@]1(C)CC(=O)[C@]2(O)[C@@]3(C)[C@@H](O)CCC(C)(C)[C@@H]3[C@H](O)[C@H](OC(C)=O)[C@@]2(C)O1 [FK, forskolin]
% protection (MCF-7 cells [1]; FK 1 μM in the presence of 10 nM E2): 66% | % protection (MCF-7 cells [1]; FK 5 μM in the presence of 10 nM E2): 78% | % protection (MCF-7 cells [1]; FK 10 μM in the presence of 10 nM E2): 86% | activity at 1 µM (MCF-7 cells [1]; Homo sapiens, MCF7, FK 1 μM in the presence of 10 nM E2, read-out: 3H-Thymidine incorporation/μg protein (% of control)): 34% | activity at 5 µM (MCF-7 cells [1]; Homo sapiens, MCF7, FK 5 μM in the presence of 10 nM E2, read-out: 3H-Thymidine incorporation/μg protein (% of control)): 22% | activity at 10 µM (MCF-7 cells [1]; Homo sapiens, MCF7, FK 10 μM in the presence of 10 nM E2, read-out: 3H-Thymidine incorporation/μg protein (% of control)): 14%

COC1=C2C[C@@H](C)C[C@H](OC)[C@H](O)[C@@H](C)/C=C(\C)[C@H](OC(N)=O)[C@@H](OC)/C=C\C=C(/C)C(=O)NC(=CC1=O)C2=O [GM, geldanamycin]
3H-Thymidine incorporation/μg protein (% of control) (MCF-7 cells [1]; GM 1 ng/ml in the presence of 10 nM E2): no effect | 3H-Thymidine incorporation/μg protein (% of control) (MCF-7 cells [1]; GM 5 ng/ml in the presence of 10 nM E2): no effect | inhibition of the E2-induced cell proliferation (MCF-7 cells [1]; GM 10 ng/ml): did not inhibit | % protection (MCF-7 cells [1]; GM 10 ng/ml in the presence of 10 nM E2): 6% | activity at 0.01 µg/mL (MCF-7 cells [1]; Homo sapiens, MCF7, GM 10 ng/ml in the presence of 10 nM E2, read-out: 3H-Thymidine incorporation/μg protein (% of control)): 94% | activity at 0.001 µg/mL (MCF-7 cells [2]; Homo sapiens, MCF7, Table 4: GM 1 ng/ml, E2 10 nM = 100, read-out: 3H-Thymidine incorporation/μg protein (% of control)): 100% | activity at 0.005 µg/mL (MCF-7 cells [2]; Homo sapiens, MCF7, Table 4: GM 5 ng/ml, E2 10 nM = 100, read-out: 3H-Thymidine incorporation/μg protein (% of control)): 100% | activity at 0.01 µg/mL (MCF-7 cells [2]; Homo sapiens, MCF7, Table 4: GM 10 ng/ml, E2 10 nM = 100, read-out: 3H-Thymidine incorporation/μg protein (% of control)): 90% | % protection (MCF-7 cells [2]; Table 4: GM 1 ng/ml, E2 10 nM = 100): 0% | % protection (MCF-7 cells [2]; Table 4: GM 5 ng/ml, E2 10 nM = 100): 0% | % protection (MCF-7 cells [2]; Table 4: GM 10 ng/ml, E2 10 nM = 100): 10%

COc1cccc(-c2cc(=O)c3ccccc3o2)c1N [PD98059]
synergy with the anticancer activity of tamoxifen in breast cancer cells (MCF-7 cells [3]): synergize the anticancer activity of tamoxifen

CC/C(=C(\c1ccccc1)c1ccc(OCCN(C)C)cc1)c1ccccc1 [TX, tamoxifen]
activity at 1 µM (MCF-7 cells [4]; Homo sapiens, MCF7, TX 1 μM, without E2, based on solvent control): 42% | activity at 5 µM (MCF-7 cells [4]; Homo sapiens, MCF7, TX 5 μM, without E2, based on solvent control): 36% | activity at 10 µM (MCF-7 cells [4]; Homo sapiens, MCF7, TX 10 μM, without E2, based on solvent control): 33% | 3H-thymidine incorporation dpm (MCF-7 cells [4]; TX 1 μM + E2 10 nM): 12336 dpm | 3H-thymidine incorporation dpm/μg protein (MCF-7 cells [4]; TX 1 μM + E2 10 nM): 379.6 dpm/μg protein | 3H-thymidine incorporation % of control (MCF-7 cells [4]; TX 1 μM + E2 10 nM, based on solvent control): 124% | % protection (based on E2 value) (MCF-7 cells [4]; TX 1 μM + E2 10 nM, value in parenthesis, based on E2 value): (21) % | 3H-thymidine incorporation dpm (MCF-7 cells [4]; TX 1 μM, without E2): 2586 dpm | 3H-thymidine incorporation dpm/μg protein (MCF-7 cells [4]; TX 1 μM, without E2): 129.3 dpm/μg protein | % protection (MCF-7 cells [4]; TX 1 μM, without E2): 58% | 3H-thymidine incorporation dpm (MCF-7 cells [4]; TX 5 μM + E2 10 nM): 4007 dpm | 3H-thymidine incorporation dpm/μg protein (MCF-7 cells [4]; TX 5 μM + E2 10 nM): 260.2 dpm/μg protein | 3H-thymidine incorporation % of control (MCF-7 cells [4]; [6]): 85% | % protection (MCF-7 cells [4]; [6]): 15% | 3H-thymidine incorporation % of control (based on E2 value) (MCF-7 cells [4]; [7]): 53% | % protection (based on E2 value) (MCF-7 cells [4]; [7]): 47% | 3H-thymidine incorporation dpm (MCF-7 cells [4]; TX 5 μM, without E2): 1848 dpm | 3H-thymidine incorporation dpm/μg protein (MCF-7 cells [4]; TX 5 μM, without E2): 112.0 dpm/μg protein | % protection (MCF-7 cells [4]; TX 5 μM, without E2): 64% | 3H-thymidine incorporation dpm (MCF-7 cells [4]; TX 10 μM + E2 10 nM): 3239 dpm | 3H-thymidine incorporation dpm/μg protein (MCF-7 cells [4]; TX 10 μM + E2 10 nM): 118.5 dpm/μg protein | 3H-thymidine incorporation % of control (MCF-7 cells [4]; [8]): 39% | % protection (MCF-7 cells [4]; [8]): 61% | % protection (based on E2 value) (MCF-7 cells [4]; TX 10 μM + E2 10 nM, value in parenthesis, based on E2 value): 75% | 3H-thymidine incorporation dpm (MCF-7 cells [4]; TX 10 μM, without E2): 1545 dpm | 3H-thymidine incorporation dpm/μg protein (MCF-7 cells [4]; TX 10 μM, without E2): 99.8 dpm/μg protein | % protection (MCF-7 cells [4]; TX 10 μM, without E2): 67% | antagonistic action against the E2-induced cell proliferation (MCF-7 cells [4]; TX 1-10 μM, Table 1): dose-dependent | potency against the E2-induced cell proliferation (MCF-7 cells [4]; low concentrations 0.56 ug/ml to 2.8 ug/ml (=1 - 5 μM)): potent | time over which the E2 action is antagonized (MCF-7 cells [5]): up to 48 hr | antiestrogenic action (MCF-7 cells [1]; 1-10 μM, Table 2): dose-dependent | activity at 1 µM (MCF-7 cells [1]; Homo sapiens, MCF7, TX 1 μM in the presence of 10 nM E2, read-out: 3H-Thymidine incorporation/μg protein (% of control)): 79% | activity at 5 µM (MCF-7 cells [1]; Homo sapiens, MCF7, TX 5 μM in the presence of 10 nM E2, read-out: 3H-Thymidine incorporation/μg protein (% of control)): 54% | activity at 10 µM (MCF-7 cells [1]; Homo sapiens, MCF7, TX 10 μM in the presence of 10 nM E2, read-out: 3H-Thymidine incorporation/μg protein (% of control)): 25% | % protection (MCF-7 cells [1]; TX 1 μM in the presence of 10 nM E2): 21% | % protection (MCF-7 cells [1]; TX 5 μM in the presence of 10 nM E2): 46% | % protection (MCF-7 cells [1]; TX 10 μM in the presence of 10 nM E2): 75% | protection against the biological activity of E2 (MCF-7 cells [2]; 1 μM TX alone, FIG. 2): ~25% | protection against the E2-induced cancer cell growth (MCF-7 cells [2]; 5 μM TX alone, FIG. 2): 45% | activity at 5 µM (MCF-7 cells [2]; Homo sapiens, MCF7, Table 4: 5 μM TX + E2, E2 10 nM = 100, read-out: 3H-Thymidine incorporation/μg protein (% of control)): 54% | % protection (MCF-7 cells [2]; Table 4: 5 μM TX + E2 (TX alone)): 46%
